# Patent US10301258B2, “Benzende sulfonamide derivatives as HIV integrase inhibitors” (priority 2014, dated 2019)
# “Also recorded” adds a separate entry of the source.
# What was measured:
# [1] = test system: HIV-1 lentiviral vector; experiment: HIV-1 lentiviral vector screening assay; format: cell-based; settings: HeLa cells, compared with no drug
# Experimental: For the vector assay HeLa cells can be utilized and the experiment can be performed in a suitable plate, such as a 24 well plate. […] A negative control, e.g., AZT, and a positive control as vector only and blank as un-infected are appropriately selected. Again, the concentration of DMSO was limited to 0.1%. Hela cells (˜3.2-10^5 cells/ml) were infected with HIV-1 lentiviral vector in the presence of the compounds to be tested and controls. After the first 24 hours of incubation at 37° C. (5% CO2), cells are replaced with fresh media containing test compounds and incubated for an additional 24 hrs. Cells are fixed with 4% paraformaldehyde in PBS and mounted in DAPI on glass slides for visualization and quantification. Images, of at least 2 fields per glass disk are obtained, such as images taken with an Olympus 1X51 fluorescence microscope equipped with a camera. EGFP fluorescence spanning an average area of 12*10^5 square pixels is quantified using Image J software, from which IC50 values can bee extrapolated using graph pad PRISM software.
# For the vector assay HeLa cells were utilized and the HIV-1 lentiviral vector screening was performed in a 24 well plate. […] Cells were fixed with 4% paraformaldehyde in PBS and mounted in DAPI on glass slides for visualization and quantification. […]
# [2] = test system: HIV-1 integrase (C-terminal domain), eGFP-MBP-IN-WT; experiment: cellular integrase assay (integrase screening assay, nuclear import inhibition); format: cell-based; settings: HEK 293T cells transfected with eGFP-MBP-IN-WT, fluorescence microscopy, FIG. 1
# Experimental: In assessing suitability of a compound according to any of the formulas herein, an integrase screening assay can be conducted. In the present case, an exemplary such assay is a cellular integrase assay. A cellular integrase assay can be performed in a 24 well plate. The assay is designed to test compounds in 3-fold serial dilutions (10, 3.3, 1.1 and 0.33 μM) with 0.1% DMSO. Negative and positive control included eGFP-MBP-IN-R262/3/6A, eGFP-MBP-IN-K236/240 and eGFP-MBP-IN-WT respectively supplemented with 0.1% DMSO. Refinement of the assay for optimal results is feasible. For example, refinement herein yields the following protocol. HEK 293T cells (˜0.4*10^5 cells/ml) are seeded and incubated at 37° C. (5% CO2) for ˜3 days on Poly-L-lysine treated glass coverslips until 80-90% confluent (˜3.2*10^5 cells/ml). Next, cells are transfected with 1 μg of eGFP-MBP-INR262/3/6A, eGFP-MBP-IN-K236/240 and eGFP-MBP-IN-WT DNA plasmid simultaneously with test compounds, at varying concentrations mentioned above, using lipofectamine 2000 transfection reagent (μL) at a ratio of 1:2 DNA plasmid to lipofectamine. After 4 hrs of incubation (at 37° C., 5% CO2), the lipofectamine mix is removed and replaced with fresh medium containing serum in the presence of the test compounds. […] Images may be prepared using an Olympus 1X51 fluorescence microscope equipped with a camera by way of example. […]
# [3] = test system: HeLa cells; settings: lentiviral vector screening, at high concentrations
# Experimental: For the vector assay HeLa cells were utilized and the HIV-1 lentiviral vector screening was performed in a 24 well plate. […] As the negative control AZT was used, a positive control as vector only and blank as un-infected were additionally used. Again the concentration of DMSO was limited to 0.1%. Hela cells (˜3.2*10^5 cells/ml) were infected with HIV-1 lentiviral vector in the presence of the compound(s) tested and controls. After the first 24 hours of incubation at 37° C. (5% CO2), cells were replaced with fresh media containing test compounds and incubated for an additional 24 hrs. Cells were fixed with 4% paraformaldehyde in PBS and mounted in DAPI on glass slides for visualization and quantification. Images, of at least 2 fields per glass disk were taken with an Olympus 1X51 fluorescence microscope equipped with a camera.
compound,measurement,setting,value
"Cc1ccc(S(=O)(=O)NCCCNS(=O)(=O)c2ccc(C)cc2)cc1 [compound 535, 4-methyl-N-[3-(4-methylbenzenesulfonamido)propyl] benzene sulfonamide]","inhibitory effect on HIV infectivity / HIV-1 replication, dose dependence",[1]; FIG. 2,exhibited an inhibitory effect in a dose dependent manor
same,"inhibitory effect on HIV infectivity / HIV-1 replication, dose dependence","[1]; FIG. 2, listed as representative compound",clearly inhibited HIV-1 replication in a dose-dependent manor
same,inhibition of nuclear import of integrase (nuclear exclusion phenotype),[2],nuclear exclusion of the fusion protein in majority of cells; also recorded: exhibited inhibition sufficient to prevent nuclear import of integrase; also recorded: clearly demonstrates inhibition of nuclear import of IN
same,inhibition of nuclear import of integrase (nuclear exclusion phenotype),[2]; listed as representative compound,displayed inhibition of nuclear import of IN similar to that of the triple mutant chimeric IN
same,cellular toxicity,[3],without introducing cellular toxicity
